In article PMC6522510 (Nature Communications, 2019):
Read-outs that look alike come from different tables or passages of the source.

How the values were obtained:
Set-up in all cases: species or system AML cell lines (8); Primary HTS, single concentration about 10 uM, Cell Titer Glo viability; log10 luminescence, per cent inhibition relative to cycloheximide control
Settings in all cases: 72 h, relative to cycloheximide control, log10 luminescence, inhibitor
CMK = system: CMK
MV4-11 = system: MV4-11
U937 = system: U937
MOLM-13 = system: MOLM-13
M07e = system: M07e
ML-2 = system: ML-2
CHRF288-11 = system: CHRF288-11
CMS = system: CMS

Structure (SMILES)	CMK %inh (CMK)	MV4-11 %inh (MV4-11)	U937 %inh (U937)	MOLM-13 %inh (MOLM-13)	M07e %inh (M07e)	ML-2 %inh (ML-2)	CHRF288-11 %inh (CHRF288-11)	CMS %inh (CMS)	CMK %inh (CMK; CMK %inh, 10 µM)	MV4-11 %inh (MV4-11; MV4-11 %inh, 10 µM)	U937 %inh (U937; U937 %inh, 10 µM)	MOLM-13 %inh (MOLM-13; MOLM-13 %inh, 10 µM)	M07e %inh (M07e; M07e %inh, 10 µM)	ML-2 %inh (ML-2; ML-2 %inh, 10 µM)	CHRF288-11 %inh (CHRF288-11; CHRF288-11 %inh, 10 µM)	CMS %inh (CMS; CMS %inh, 10 µM)
Nc1ccc(C#Cc2cncnc2Nc2ccc(OCc3cccc(F)c3)c(Cl)c2)cc1 [SJ000573041-1, U17810/18/1]	13.47%	4.494%	3.684%	7.505%	8.047%	5.257%	2.448%	3.795%								
COc1cc(C)c(N(C)C(=O)CN(C)C)cc1Nc1nc(Nc2cccc(F)c2C(N)=O)c2cc[nH]c2n1 [SJ000573042-1, N5326-79-1]	3.967%	3.146%	-0.591%	-1.115%	-1.728%	14.99%	20.31%	1.596%								
COc1cc2c(cc1Nc1nc(N3CCc4ccccc43)c3cc[nH]c3n1)N(C(=O)CN(C)C)CC2 [SJ000573043-1, N7699-100-1]	123.9%	75.42%	74.23%	9.876%	130.8%	54.96%	128.5%	96.79%								
COc1cc2c(cc1Nc1nc(Nc3ccsc3C(N)=O)c3cc[nH]c3n1)N(C(=O)CN(C)C)CCC2 [SJ000573044-1, N3343-60-3]	100.5%	66.76%	74.84%	89.42%	106%	41.91%	98.1%	65.93%								
Nc1ncnc2occ(-c3ccc(NC(=O)Nc4cccc(C(F)(F)F)c4)cc3)c12 [SJ000573045-1, CL210513-033A3]	22.69%	73.96%	26.65%	88.68%	17.9%	6.046%	45.6%	11.5%								
CCn1c(-c2nonc2N)nc2cncc(C(=O)NCCNC)c21 [SJ000573046-1, FIDE/U1002/66/2]	39.87%	47.15%	25.48%	9.392%	12.62%	17.45%	15.2%	12.48%								
CCn1c(-c2nonc2N)nc2cncc(C(=O)N3CCNCC3)c21 [SJ000573047-1, TP100582-069A1]	-1.515%	2.106%	1.348%	0.2835%	4.058%	1.727%	-1.797%	1.245%								
Nc1ncnc2occ(-c3ccc(NC(=O)Nc4cc(C(F)(F)F)ccc4F)cc3)c12 [SJ000573048-1, CL210513-029A3 | T299/89/1 | YF46626-103A2]									31.71%	68.76%	17.4%	82.99%	14.83%	1.043%	26.14%	8.741%
Nc1ncnc2occ(-c3ccc(NC(=O)Nc4cc(C(F)(F)F)ccc4F)cc3)c12 [SJ000573048-2, CL210513-029A3 | T299/89/1 | YF46626-103A2]									82.88%	78.92%	50.36%	99.82%	28.03%	4.549%	5.114%	10.62%
Cc1cc(O)cc(C)c1/C=C/c1cncc(-c2nn[nH]n2)c1 [SJ000573052-1, T252/80/1]	-5.146%	-3.299%	-3.239%	-1.521%	-1.115%	-1.281%	-3.388%	-2.3%								
CN(C)C(=O)O[C@H]1CN[C@H](C#Cc2cc3ncnc(Nc4ccc(OCc5cccc(F)c5)c(Cl)c4)c3s2)C1 [SJ000573053-1, U20298/139/1 | U20747/39/1]	-4.087%	4.747%	-0.4617%	-0.949%	1.476%	5.015%	65.04%	2.516%								
CN(C)C(=O)O[C@@H]1CN[C@@H](C#Cc2cc3ncnc(Nc4ccc(OCc5cccc(F)c5)c(Cl)c4)c3s2)C1 [SJ000573053-2, U20298/139/1 | U20747/39/1]	-4.505%	-0.77%	3.489%	-3.067%	-1.206%	1.706%	39.41%	4.277%								
COc1cccc(-n2cnc3c(N/N=C/c4ccncc4)ncnc32)c1 [SJ000573055-1, U17791/62/2]	9.137%	22.16%	6.107%	29.19%	2.779%	-0.9344%	0.9652%	0.1507%								
CN1CCN(C(=O)c2ccc(NC(=O)Nc3ccc(N(C)c4ccnc(Nc5ccc(CS(C)(=O)=O)cc5)n4)cc3)cc2)CC1 [SJ000573056-1, U17983/92/5]	6.346%	82.16%	5.393%	94.26%	-6.05%	10.8%	0.03637%	-2.808%								
Cc1ccc2c(-c3ccnc(Nc4cccc(C(F)(F)F)c4)n3)c(-c3ccccc3)nn2n1 [SJ000573057-1, U18020/146/1]	8.756%	9.271%	5.106%	-0.1836%	0.344%	9.435%	-3.995%	10.95%								
COc1cc(C=NNc2ncnc3c2cnn3Cc2ccccc2)ccc1O [SJ000573058-1, T237/25/8]	-3.542%	-3.195%	-2.319%	-1.629%	-2.447%	0.3051%	-7.429%	-1.754%								
COc1ccc(C2=C(N3CCc4ccccc43)C(=O)NC2=O)cc1 [SJ000573061-1, DH97836-162A1]	1.284%	5.926%	9.443%	-1.299%	1.612%	4.148%	16.97%	1.472%								
CCc1cccc(CC)c1/C=C/c1cncc(C(=O)NC)c1 [SJ000573062-1, U12068/83/1]	82.75%	-0.1109%	29.57%	18.25%	15.2%	7.466%	36.66%	0.8952%								
